Test results taken from patent publication US20240158446A1, “CYCLIC COMPOUND HAVING SELECTIVE INHIBITORY ACTION ON KRAS OVER HRAS AND NRAS” (CHUGAI SEIYAKU KABUSHIKI KAISHA, priority 2021, published 2024).
*1 amine or outer side, *2 acyl side, *3 side chain or, on linkers, in order; H or OH if unused. Where a SMILES comes first, the peptide text is derived from it. Bridges are numbered along the chain shown (N, C = ends). [ ]: non-standard residue; d: D form. The star is where a group is joined. hPhe(3-Cl-4-CF3) = N[C@@H](CCc1ccc(C(F)(F)F)c(Cl)c1)C(=O)O; NPrPhe(4-CF3) = CCCN[C@@H](Cc1ccc(C(F)(F)F)cc1)C(=O)O; NPrAsp = CCCN([C@@H](CC(=O)[*:3])C(=O)[*:2])[*:1]; NMeGly(cPent) = CN[C@H](C(=O)O)C1CCCC1; Ac4c(3,3-Me2) = CC1(C)CC(N)(C(=O)O)C1; NMeD = CN[C@@H](CC(=O)O)C(=O)O; NMeL = CN[C@@H](CC(C)C)C(=O)O; NMeNva = CCC[C@H](NC)C(=O)O; Morpholide = C1CN(*)CCO1; Ac4c = NC1(C(=O)O)CCC1; NPrGly = CCCNCC(=O)O; Sar = CNCC(=O)O; Propyl = CCC*

Assays:
[1] = biological target: GDP-bound KRAS wild-type protein (Homo sapiens, UniProt P01116); test: Binding to KRAS by surface plasmon resonance (SPR), Single Cycle Kinetics; conditions: SPR, Single Cycle Kinetics, GDP-bound KRAS wild-type protein; read-out: KRAS KD
Chain of GDP-bound KRAS wild-type protein (P01116 whole entry): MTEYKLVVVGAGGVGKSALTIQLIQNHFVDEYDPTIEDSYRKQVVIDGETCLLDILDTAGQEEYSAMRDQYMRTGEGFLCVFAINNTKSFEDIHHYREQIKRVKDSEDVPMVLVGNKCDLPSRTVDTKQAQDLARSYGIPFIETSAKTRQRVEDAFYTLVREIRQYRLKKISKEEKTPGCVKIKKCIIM

[2] = biological target: GDP-bound NRAS wild-type protein (Homo sapiens, UniProt P01111); test: Binding to NRAS by surface plasmon resonance (SPR), Single Cycle Kinetics; conditions: ratio of KD for GDP-bound NRAS wild-type protein to KD for KRAS, SPR
Chain of GDP-bound NRAS wild-type protein (P01111 whole entry): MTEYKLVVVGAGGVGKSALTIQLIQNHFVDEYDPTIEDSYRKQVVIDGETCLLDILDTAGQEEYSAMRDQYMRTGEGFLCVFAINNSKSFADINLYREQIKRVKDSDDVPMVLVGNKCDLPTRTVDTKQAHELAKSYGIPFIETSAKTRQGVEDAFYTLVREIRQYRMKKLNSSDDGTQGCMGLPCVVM

[3] = test system: human lung cancer strain NCI-H441; test: cells; conditions: NCI-H441, 96 h, read-out: NCI-H441 IC50 (nM), NCI-H441 cell proliferation, 4 days, CellTiter-Glo;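 further: cell proliferation inhibition after four days measured by CellTiter-Glo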
[4] = biological target: GDP-bound HRAS wild-type protein (Homo sapiens, UniProt P01112); test: Binding to HRAS by surface plasmon resonance (SPR), Single Cycle Kinetics; conditions: ratio of KD for GDP-bound HRAS wild-type protein to KD for KRAS, SPR
Chain of GDP-bound HRAS wild-type protein (P01112 whole entry): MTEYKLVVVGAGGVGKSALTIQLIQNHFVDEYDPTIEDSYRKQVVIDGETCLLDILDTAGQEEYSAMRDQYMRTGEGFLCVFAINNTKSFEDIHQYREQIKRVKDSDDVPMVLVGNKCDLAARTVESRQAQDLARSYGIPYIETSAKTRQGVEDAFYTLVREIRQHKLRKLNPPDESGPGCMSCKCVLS

| Kd [1] | IC50 [3] | Structure (SMILES) | NRAS/KRAS (KD ratio) [2] | HRAS/KRAS (KD ratio) [4] |
| --- | --- | --- | --- | --- |
| 0.13 nM | 26.6 nM | CC[C@H](C)[C@@H]1NC(=O)[C@H](CCOC)N(C)C(=O)C[C@@H](C(=O)N(C)CC)N(C)C(=O)[C@H](C2CCCC2)N(C)C(=O)C2(CC(C)(C)C2)NC(=O)[C@@H]2C[C@H](C)CN2C(=O)[C@H](CCc2ccc(C(F)(F)F)c(OC)c2)NC(=O)CN(C)C(=O)[C@H](Cc2ccc(C(F)(F)F)cc2)N2CC/C=C\C[C@@H](C2=O)N(C)C(=O)CN(C)C1=O [PP1999] | A (a compound having 10 or more and less than 20 is denoted as A) | B (a compound having 3 or more and less than 10 is denoted as B) |
| 0.15 nM | 15.6 nM | CCO[C@@H]1C[C@H]2C(=O)NC3(CC(C)(C)C3)C(=O)N(C)[C@@H](C3CCCC3)C(=O)N(C)[C@H](C(=O)N(C)CC)CC(=O)N(C)[C@@H](CC)C(=O)N[C@@H]([C@@H](C)CC)C(=O)N(C)CC(=O)N(C)[C@H]3C/C=C\CCN(C3=O)[C@@H](Cc3ccc(C)cc3)C(=O)N(C)CC(=O)N[C@@H](CCc3ccc(C(F)(F)F)c(Cl)c3)C(=O)N2C1 [PP1880] | A (a compound having 10 or more and less than 20 is denoted as A) | B (a compound having 3 or more and less than 10 is denoted as B) |
| 0.18 nM | 16.9 nM | CCO[C@@H]1C[C@H]2C(=O)NC3(CCC3)C(=O)N(C)[C@@H](C3CCCC3)C(=O)N(C)[C@H](C(=O)N(C)CC)CC(=O)N(C)[C@@H](CC3CC3)C(=O)N[C@@H]([C@@H](C)CC)C(=O)N(C)CC(=O)N(C)[C@H]3C/C=C\CCN(C3=O)[C@@H](Cc3ccc(C)cc3)C(=O)N(C)CC(=O)N[C@@H](CCc3ccc(C(F)(F)F)c(OC)c3)C(=O)N2C1 [PP1879] | A (a compound having 10 or more and less than 20 is denoted as A) | B (a compound having 3 or more and less than 10 is denoted as B) |
| 0.15 nM | 13.1 nM | CCC[C@H]1C(=O)N[C@@H]([C@@H](C)CC)C(=O)N(C)CC(=O)N(C)[C@H]2C/C=C\CCN(C2=O)[C@@H](Cc2ccc(C(F)(F)F)cc2)C(=O)N(C)CC(=O)N[C@@H](CCc2ccc(Cl)c(Cl)c2)C(=O)N2C[C@H](OCC)C[C@H]2C(=O)NC2(CC(C)(C)C2)C(=O)N(C)[C@@H](C2CCCC2)C(=O)N(C)[C@H](C(=O)N(C)C)CC(=O)N1C [PP1932] | A (a compound having 10 or more and less than 20 is denoted as A) | A (a compound having 10 or more and less than 20 is denoted as A) |
| 0.11 nM | 11.1 nM | CCCOC[C@H]1C(=O)N[C@@H]([C@@H](C)CC)C(=O)N(C)CC(=O)N(C)[C@H]2C/C=C\CCN(C2=O)[C@@H](Cc2ccc(C(F)(F)F)cc2)C(=O)N(C)CC(=O)N[C@@H](CCc2cc(F)c(Cl)c(F)c2)C(=O)N2C[C@H](OCC)C[C@H]2C(=O)NC2(CC(C)(C)C2)C(=O)N(C)[C@@H](C2CCCC2)C(=O)N(C)[C@H](C(=O)N(C)C)CC(=O)N1C [PP1764] | AA (a compound having 20 or more is denoted as AA) | A (a compound having 10 or more and less than 20 is denoted as A) |
| 0.12 nM | 18.3 nM | CC[C@H](C)[C@@H]1NC(=O)[C@H](CC(C)C)N(C)C(=O)C[C@@H](C(=O)N(C)CC)N(C)C(=O)[C@H](C2CCCC2)N(C)C(=O)C2(CCC2)NC(=O)[C@@H]2C[C@H](C)CN2C(=O)[C@H](CCc2ccc(C(F)(F)F)c(OC)c2)NC(=O)CN(C)C(=O)[C@H](Cc2ccc(C)cc2)N2CC/C=C\C[C@@H](C2=O)N(C)C(=O)CN(C)C1=O [PP1904] | A (a compound having 10 or more and less than 20 is denoted as A) | B (a compound having 3 or more and less than 10 is denoted as B) |

Continued, compound first:

| Structure (SMILES) | Kd [1] | IC50 [3] | NRAS/KRAS (KD ratio) [2] | HRAS/KRAS (KD ratio) [4] |
| --- | --- | --- | --- | --- |
| CC[C@H](C)[C@@H]1NC(=O)[C@H](CC2CC2)N(C)C(=O)C[C@@H](C(=O)N(C)C)N(C)C(=O)[C@H](C2CCCC2)N(C)C(=O)C2(CCC2)N(C)C(=O)[C@@H]2CCCN2C(=O)[C@H](CCc2cc(F)c(C(F)(F)F)c(F)c2)NC(=O)CN(C)C(=O)[C@H](Cc2ccc(C)cc2)N2CC/C=C\C[C@@H](C2=O)N(C)C(=O)[C@@H]2CCCN2C1=O [PP1798] | 0.15 nM | 7.8 nM | A (a compound having 10 or more and less than 20 is denoted as A) | B (a compound having 3 or more and less than 10 is denoted as B) |
| CCC[C@H]1C(=O)N[C@@H]([C@@H](C)CC)C(=O)N(C)CC(=O)N(C)CC(=O)N(CCC)[C@@H](Cc2ccc(C(F)(F)F)cc2)C(=O)N(C)CC(=O)N[C@@H](CCc2ccc(C(F)(F)F)c(Cl)c2)C(=O)N2CCC[C@H]2C(=O)NC2(CCC2)C(=O)N(C)[C@@H](C2CCCC2)C(=O)N(CCC)[C@H](C(=O)N2CCOCC2)CC(=O)N1C [PP1954] ([NMeNva]I[Sar][Sar][NPrPhe(4-CF3)][Sar][hPhe(3-Cl-4-CF3)]P[Ac4c][NMeGly(cPent)][NPrAsp]-Morpholide; lactam N-11) | 0.77 nM | 8.1 nM | B (a compound having 3 or more and less than 10 is denoted as B) | B (a compound having 3 or more and less than 10 is denoted as B) |
| CC[C@H](C)[C@@H]1NC(=O)[C@H](CC(C)C)N(C)C(=O)C[C@@H](C(=O)N(C)CC)N(C)C(=O)[C@H](C2CCCC2)N(C)C(=O)C2(CCC2)NC(=O)[C@@H]2C[C@@H](C)CN2C(=O)[C@H](CCc2ccc(C(F)(F)F)c(OC)c2)NC(=O)CN(C)C(=O)[C@H](Cc2ccc(C)cc2)N2CC/C=C\C[C@@H](C2=O)N(C)C(=O)CN(C)C1=O [PP1907] | 0.17 nM | 23.6 nM | AA (a compound having 20 or more is denoted as AA) | A (a compound having 10 or more and less than 20 is denoted as A) |
| CCCO[C@H](C)[C@@H]1NC(=O)[C@H](CC(C)C)N(C)C(=O)C[C@@H](C(=O)N2CCOCC2)N(C)C(=O)[C@H](C2CCCC2)N(C)C(=O)C2(CC(C)(C)C2)NC(=O)[C@@H]2CCCN2C(=O)[C@H](CCc2ccc(C(F)(F)F)c(Cl)c2)NC(=O)CN(C)C(=O)[C@H](Cc2ccc(C(F)(F)F)cc2)N(CCC)C(=O)CN(C)C(=O)CN(C)C1=O [PP1965] ([NMeL]T(Propyl)[Sar][Sar][NPrPhe(4-CF3)][Sar][hPhe(3-Cl-4-CF3)]P[Ac4c(3,3-Me2)][NMeGly(cPent)][NMeD]-Morpholide; lactam N-11) | 0.3 nM | 17.4 nM | B (a compound having 3 or more and less than 10 is denoted as B) | B (a compound having 3 or more and less than 10 is denoted as B) |
| CCC[C@H]1C(=O)N[C@@H]([C@@H](C)CC)C(=O)N(CCC)CC(=O)N(C)CC(=O)N(CCC)[C@@H](Cc2ccc(C(F)(F)F)cc2)C(=O)N(C)CC(=O)N[C@@H](CCc2ccc(C(F)(F)F)c(Cl)c2)C(=O)N2CCC[C@H]2C(=O)NC2(CCC2)C(=O)N(C)[C@@H](C2CCCC2)C(=O)N(C)[C@H](C(=O)N2CCOCC2)CC(=O)N1C [PP1947] ([NMeNva]I[NPrGly][Sar][NPrPhe(4-CF3)][Sar][hPhe(3-Cl-4-CF3)]P[Ac4c][NMeGly(cPent)][NMeD]-Morpholide; lactam N-11) | 0.37 nM | 22 nM | B (a compound having 3 or more and less than 10 is denoted as B) | B (a compound having 3 or more and less than 10 is denoted as B) |
